# What was measured:
# [1] = molecular target: C-C chemokine receptor type 2 (Homo sapiens, UniProt P41597); assay: Antagonist activity at human C-C chemokine receptor type 2 expressed in THP-1 cells assessed as inhibition of CCL2-induced calcium flux preincubated for 10 mins followed by CCL2 addition by Fluo-4 dye based FLIPR assay; type: functional, cell-based
# [2] = Glutathione reactivity at 50 uM measured over 18 hrs by LC-UV method
# [3] = molecular target: T1, C-C chemokine receptor type 2 (Rattus norvegicus, UniProt O55193); assay: Antagonist activity at rat C-C chemokine receptor type 2 assessed as inhibition of CCL2-induced calcium flux; type: functional
# T1 sequence (O55193 whole entry): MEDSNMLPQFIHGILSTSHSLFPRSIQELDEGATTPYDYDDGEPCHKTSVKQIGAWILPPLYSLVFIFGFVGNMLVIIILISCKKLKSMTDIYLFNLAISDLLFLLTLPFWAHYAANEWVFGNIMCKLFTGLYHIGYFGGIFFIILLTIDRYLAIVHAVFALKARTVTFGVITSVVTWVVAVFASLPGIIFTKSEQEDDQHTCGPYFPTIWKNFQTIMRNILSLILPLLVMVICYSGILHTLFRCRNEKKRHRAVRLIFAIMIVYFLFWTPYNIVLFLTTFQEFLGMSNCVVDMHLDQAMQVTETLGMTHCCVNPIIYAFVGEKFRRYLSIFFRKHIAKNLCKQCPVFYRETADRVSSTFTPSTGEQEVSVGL
# [4] = Glutathione reactivity assessed as half life of compound at 50 uM measured over 18 hrs by LC-UV method; type: physicochemical; settings: glutathione solution (chemical reactivity test)
# Chain of C-C chemokine receptor type 2 (Homo sapiens, UniProt P41597) (P41597 whole entry): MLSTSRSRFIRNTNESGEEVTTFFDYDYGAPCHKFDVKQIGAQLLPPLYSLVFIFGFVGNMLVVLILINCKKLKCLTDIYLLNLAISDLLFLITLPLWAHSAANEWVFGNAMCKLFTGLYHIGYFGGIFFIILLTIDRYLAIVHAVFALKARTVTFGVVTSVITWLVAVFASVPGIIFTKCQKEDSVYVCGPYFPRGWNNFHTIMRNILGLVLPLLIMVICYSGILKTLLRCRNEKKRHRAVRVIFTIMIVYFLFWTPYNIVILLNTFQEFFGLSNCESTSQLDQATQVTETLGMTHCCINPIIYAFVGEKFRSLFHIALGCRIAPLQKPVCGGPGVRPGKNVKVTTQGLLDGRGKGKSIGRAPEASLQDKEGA
Compound,IC50 [1],IC50 [3],Drug metabolism [2],half-life at 50 µM [4]
CC(C)(C)N1CCN[C@@H](C(=O)N2CCN(C(=O)Nc3ncc(F)s3)CC2)C1,9.2 nM,,Metabolite not detected,
CC(=O)Nc1nc(C)c(Br)s1,,,Metabolite not detected,
CC(C)N1CCN[C@@H](C(=O)N2CCN(C(=O)Nc3nc(C(C)(C)C)c(Cl)s3)CC2)C1,2.3 nM,,,
COc1sc(NC(=O)N2CCN(C(=O)[C@H]3CN(C(C)(C)C)CCN3)CC2)nc1C,41 nM,,Metabolite not detected,
CC(C)(C)N1CCN[C@@H](C(=O)N2CCN(C(=O)Nc3ncc(Cl)s3)CC2)C1,7.4 nM,,Metabolite not detected,
CC(C)(C)N1CCN[C@@H](C(=O)N2CCN(C(=O)Nc3nc(C4CC4)cs3)CC2)C1,1.1 nM,,Metabolite not detected,
CC(C)N1CCN[C@@H](C(=O)N2CCN(C(=O)Nc3nc(C(C)(C)C)c(F)s3)CC2)C1,2.7 nM,,Metabolite not detected,
O=[N+]([O-])c1ccc(CCl)cc1,,,,3.6 h

# The next lines start with results.
IC50 [1],IC50 [3],Compound,Drug metabolism [2],half-life at 50 µM [4]
< 0.45 nM,,Cc1nc(NC(=O)N2CCN(C(=O)[C@H]3CN(C(C)(C)C)CCN3)CC2)sc1Br,,
< 0.45 nM,,CC(C)(C)N1CCN[C@@H](C(=O)N2CCN(C(=O)Nc3nc(C4CC4)c(Cl)s3)CC2)C1,,
1.7 nM,,CCc1nc(NC(=O)N2CCN(C(=O)[C@H]3CN(C(C)C)CCN3)CC2)sc1Cl,,
0.65 nM,,Cc1nc(NC(=O)N2CCN(C(=O)[C@H]3CN(C(C)(C)C)CCN3)CC2)sc1Cl,,
0.13 nM,1.3 nM,CC(C)(C)N1CCN[C@@H](C(=O)N2CCN(C(=O)Nc3nc(C(F)(F)F)c(Cl)s3)CC2)C1,Metabolite not detected,
1.2 nM,,CC(C)c1nc(NC(=O)N2CCN(C(=O)[C@H]3CN(C(C)C)CCN3)CC2)sc1Cl,,
